This is an account of results in patent US20120189758A1, “Flavour Enhancement” (priority 2009, published 2012).

Experiment [1] can be described thus: Taste comparison of model savoury base, GABA solution and base plus GABA (Example 2). Conditions: 4 experienced tasters; base: 5000 ppm table salt, 150 ppm MSG, 75 ppm IMP/GMP; GABA 10 ppm. The procedure:
A model savoury solution containing 5000 ppm table salt, 150 ppm MSG and 75 ppm IMP/GMP was used as a base.
Another solution was prepared containing 10 ppm GABA.
In a third solution, 10 ppm GABA was added to the base solution.
The solutions were compared by a small group of experienced tasters (3 male, 1 female).
The base solution was described as salty and umami. The GABA solution was tasteless. All members of the group preferred the third solution over the first one and judged to be noticeably different from the base.

Experiment [2] can be described thus: GABA concentration series in reference savoury solution, tasted for umami enhancement (Example 4). Conditions: 5000 ppm table salt, 15 ppm MSG, 75 ppm IMP/GMP. As for the experimental part: A reference solution containing 5000 ppm table salt, 15 ppm MSG and 75 ppm IMP/GMP was prepared. To different parts of this solution 5, 10, 15, 20, and 25 ppm GABA was added. The solutions were tasted by a small group of experienced tasters (3 male, 1 female). […] 15 ppm of GABA was the flavoured sample in comparison to the target.

Regarding `NCCCC(=O)O` [GABA, γ-amino butyric acid], the taste description result in experiment [1] is reported as “tasteless”. In experiment [2], the “GABA concentration of the flavoured (favoured) sample in comparison to the target” value is on record as 15 ppm.
